# Source: patent US20230219912A1, “HALOGENATED BENZOTHIADIAZINES FOR THE TREATMENT OF CANCER” (BOARD OF REGENTS OF THE UNIVERSITY OF NEBRASKA, priority 2020, published 2023)
# Values joined by “and” are separate entries in the source; they are usually repeats but may differ in a detail not shown here. Equal entries are not always repeated. “Also recorded” adds a separate entry of the source. Where two headings read alike, the source gives them in different places.
# Experiments:
# [1] = molecular target: T1, Mitochondrial respiratory complex II (Rattus norvegicus, UniProt P21913+Q641Z9+Q6PCT8+Q920L2); assay: Mitochondrial respiratory complex II inhibition assay; type: biochemical; settings: for inhibition at 100 µM: read-out: inhibition of CII
# T1 construct: measured spectrophotometrically using isolated rat heart mitochondria; from tissue; host or cells: rat heart mitochondria / sub-mitochondrial particles
# T1 sequence (Q920L2 35-656): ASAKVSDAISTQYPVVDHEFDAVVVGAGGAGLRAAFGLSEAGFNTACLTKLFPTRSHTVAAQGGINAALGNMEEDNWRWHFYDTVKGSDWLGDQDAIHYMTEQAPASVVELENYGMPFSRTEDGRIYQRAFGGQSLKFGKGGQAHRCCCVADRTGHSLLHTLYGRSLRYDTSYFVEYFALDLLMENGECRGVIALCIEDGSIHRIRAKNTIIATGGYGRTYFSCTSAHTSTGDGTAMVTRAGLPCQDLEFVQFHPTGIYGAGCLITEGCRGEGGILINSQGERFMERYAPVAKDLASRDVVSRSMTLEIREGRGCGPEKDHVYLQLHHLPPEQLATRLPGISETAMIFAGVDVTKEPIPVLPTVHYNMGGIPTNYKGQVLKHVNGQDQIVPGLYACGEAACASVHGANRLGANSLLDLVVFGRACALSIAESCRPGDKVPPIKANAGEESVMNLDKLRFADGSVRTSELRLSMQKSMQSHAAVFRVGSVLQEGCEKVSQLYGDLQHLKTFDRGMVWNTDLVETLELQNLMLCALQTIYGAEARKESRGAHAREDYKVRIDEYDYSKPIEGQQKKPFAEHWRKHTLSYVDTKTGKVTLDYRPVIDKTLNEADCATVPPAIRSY
# T1 sequence (P21913 31-282): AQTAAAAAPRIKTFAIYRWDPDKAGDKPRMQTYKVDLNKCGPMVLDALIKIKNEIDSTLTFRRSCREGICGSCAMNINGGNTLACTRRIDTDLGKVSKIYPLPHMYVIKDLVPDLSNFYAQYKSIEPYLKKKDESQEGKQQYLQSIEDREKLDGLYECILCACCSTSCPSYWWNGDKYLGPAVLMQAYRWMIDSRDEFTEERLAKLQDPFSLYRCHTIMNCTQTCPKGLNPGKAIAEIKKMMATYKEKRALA
# T1 sequence (Q641Z9 1-169): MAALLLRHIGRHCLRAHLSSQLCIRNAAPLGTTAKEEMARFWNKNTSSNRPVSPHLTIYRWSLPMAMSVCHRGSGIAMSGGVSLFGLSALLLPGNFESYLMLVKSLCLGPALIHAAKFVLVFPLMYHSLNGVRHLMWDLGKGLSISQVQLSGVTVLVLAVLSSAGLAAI
# T1 sequence (Q6PCT8 57-159): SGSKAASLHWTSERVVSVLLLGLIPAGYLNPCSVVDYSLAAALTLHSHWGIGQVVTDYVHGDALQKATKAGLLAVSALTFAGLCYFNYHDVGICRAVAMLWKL
# Description: The assay was performed as follows. Mitochondria were isolated either from fresh rat hearts or by differential centrifugation in sucrose-based buffer as previously described.^24 Complex II enzymatic activity was determined spectrophotometrically as the rate of succinate-driven, co-enzyme Q2-linked reduction of dichlorophenolindophenol (DCPIP).^49 Mitochondria or sub-mitochondrial particles were incubated in phosphate buffer (pH 7.4) containing 40 μM DCPIP, 1 mM KCN, 10 μM rotenone, and 50 μM co-enzyme Q2. The rate of reduction of DCPIP to DCPIPH2 was followed at […] (ε=21,000 M-1). Varying amounts of succinate and inhibitors were used to determine an IC50 value. At the end of each run thenoyltrifluoroacetone (1 mM) was added and the residual TTFA-insensitive rate subtracted.
# [2] = test system: phosphorylated vascular endothelial growth factor receptor-2 (VEGFR2); assay: Western blot of pVEGFR2 in VEGF-treated HUVEC cells; type: cell-based, human; settings: 20 μM, VEGF 10 ng/mL, 5 min
# Description: Cells were treated with test compounds (20 μM) along with VEGF (10 ng/mL) for 5 min. The DMSO was used as a negative control, whereas DMSO+VEGF was used as a positive control. Cells were lysed using RIPA buffer (10 mmol/L Tris-HCl, 1 mmol/L EDTA, 0.5 mmol/L EGTA, 1% Triton X-100, 0.1% sodium deoxycholate, 0.1% SDS and 140 mmol/L NaCl), supplemented with protease and phosphatase inhibitors (Halt Protease and Phosphatase Inhibitor). Cell lysates were centrifuged, and the supernatants were mixed with appropriate amount of 5×SDS loading buffer. Proteins were resolved on polyacrylamide gel and transferred onto nitrocellulose/PVDF membrane, blocked for 1 hour with 10% milk block prepared in 0.1% Tween 20 in 1×PBS (PBST), and treated with pVEGFR2 primary antibody at 4° C. overnight. The membrane was washed thrice with PBST, 5 minutes each, and treated with secondary antibody for 1 hour. The membrane was further washed three times, 5 minutes each, with PBST and developed using chemiluminescence, and the bands were analyzed using densitometry.
# [3] = test system: 22Rv1 prostate cancer cells; assay: MTS cytotoxicity assay in 22Rv1 prostate cancer cells; settings: Homo sapiens; for cytotoxicity at 100 µM: 22Rv1, 48 h, read-out: reduction of 22Rv1 cell viability
# Description: (§1) The assay was performed as follows. To determine the cell growth inhibition ability of the synthesized compounds the (3-(4,5-dimethylthiazol-2-yl)-5-(3-carboxymethoxyphenyl)-2-(4-sulfophenyl)-2H-tetrazolium) (MTS) assay used according to the manufacturer's recommended protocol. Stock solutions of the synthesized compounds were prepared in DMSO. Cells were seeded at a density of 1×10^5 cells in 96-well plates. After 24 hours, cells were treated at the indicated concentrations of test compounds, limiting the final DMSO concentration to less than 1%. After incubation at 37° C. in an environment of 5% CO2 for 48-72 hours, 10 μL of MTS reagent (CellTiter 96© AQueous One Solution Reagent) was added to each well and incubated at the above mentioned conditions for 2-4 hr. Absorbance was recorded at 490 nm on a BioTek Synergy Mx multimode plate reader and the viability of cells were plotted as percentage of controls.
# [4] = test system: VEGF-induced proliferation of HUVEC cells; assay: VEGF-induced HUVEC proliferation, MTT assay; type: cell-based, human; settings: for inhibition of VEGF-induced HUVEC proliferation (in words): 20 μM; for inhibition at 20 µM: Homo sapiens, read-out: % Inhibition of Proliferation
# Description: The assay was performed as follows. Vascular endothelial growth factor (VEGF, Cat #SRP3182) was purchased from Sigma. […] Stock solutions of all compounds were prepared in DMSO and were serially diluted for cell culture treatment maintaining the final DMSO concentration at less than 1%. Cell proliferation of HUVECs was evaluated through the MTT (3-[4, 5-dimethylthiazol-2-yl]-2, 5-dimethyltetrazolium bromide) colorimetric assay, as previously described.^28 The HUVECs were seeded at a density of 10,000 cells/well in 24 well plates in serum-containing medium and cultured overnight. Cells were starved with 300 μL of assay media (0.1% BSA+0.1% FBS in basal medium) for 24 h. Then, cells were treated with 500 μL of assay medium (control group), VEGF (10 ng/mL, positive control group) or VEGF along with compounds (20 μM). After 48 h of culture, 50 μL of MTT stock (5 mg/mL in PBS) was added to each well and incubated for 2 h at 37° C. to allow the formation of dark blue formazan crystals in the metabolically active cells. The medium was removed, the cells were washed with PBS (pH 7.4), and 100 μL of acidified isopropanol (0.33 mL HCl in 100 mL isopropanol) was added to each well and incubated for 5 min with thorough agitation to solubilize the formazan crystals. An equal volume of the solution was transferred to a 96-well plate and the absorbance was immediately measured using a microplate reader at a wavelength of 570 nm.
# [5] = test system: MDA-MB-468 triple negative breast cancer cells; assay: MTS cytotoxicity assay in MDA-MB-468 triple negative breast cancer cells; type: cell-based; settings: Homo sapiens, MDA-MB-468; 72 hours; mean ± SD n = 3
# Description: The assay was performed as follows.
# Derivatives were dosed at 10, 50 and 100 μM for 24, 48 and 72 hours and cell viability measured by MTS assay (FIG. 5).
# [6] = test system: human embryonic kidney (HEK293) cells; assay: MTS cytotoxicity assay in HEK293 cells; type: cell-based; settings: 72 hours, mean ± SD n = 3
# Description: as §1
# Cytotoxicity was also evaluated by using the low tumorigenic HEK293 cells at 50 μM concentration.
# [7] = test system: Mitochondrial respiratory complex II (CII); settings: literature, cited from earlier work
# [8] = 100 μM, relative to DMSO control
# [9] = HUVEC, 48 h, 20 μM compound, VEGF 10 ng/mL, HUVEC, 48 h, relative to VEGF treated cells, mean ± SEM n = 3
SMILES,inhibition of VEGF-induced HUVEC proliferation (in words) ([4]; VEGF 10 ng/mL),IC50 [5] [µM],IC50 [6] [µM],"inhibition at 20 µM [4, 9] [%]",also measured
"O=S1(=O)N=C(NCc2ccc(OC(F)(F)F)cc2)Nc2ccc(Br)cc21 [Compound 30c, 7-bromo-3-((4-(trifluoromethoxy)benzyl)amino)-4H-benzo[e][1,2,4]thiadiazine 1,1-dioxide]",,,,,"inhibition at 100 µM [1, 8]: 21%; attenuation of pVEGFR2 expression [2]: outperformed the parent compound; cytotoxicity at 100 µM [3]: 45%"
"Cc1cccc(CNC2=NS(=O)(=O)c3cc(Cl)ccc3N2)c1 [Compound 58e, 7-Chloro-3-((3-methylbenzyl)amino)-4H-benzo[e][1,2,4]thiadiazine1,1-dioxide]",suppressed HUVEC proliferation; also recorded: enhanced activity,,,,"attenuation of pVEGFR2 expression [2]: outperformed the parent compound; inhibition at 20 µM ([4]; HUVEC, 48 h): 145 ± 6%"
"O=S1(=O)N=C(NCc2ccccc2)Nc2cc(Cl)ccc21 [Compound 21b, 3-(benzylamino)-6-chloro-4H-benzo[e][1,2,4]thiadiazine 1,1-dioxide]",suppressed HUVEC proliferation; also recorded: enhanced activity,64.2 ± 14.2,102 ± 16.1,,"inhibition of CII [1, 8]: inactive; inhibition at 100 µM [1, 8]: 0%; % Inhibition of Proliferation ([4]; 20 μM compound, VEGF 10 ng/mL, HUVEC, 48 h, relative to VEGF treated cells, mean ± SEM n = 3, 20 µM): 200±12% and 125±10%; cytotoxicity at 100 µM [3]: ~35%"
O=C(O)CC(=O)O [Malonate],,,,,IC50 [7]: 40 µM
"O=S1(=O)N=C(NCCCCc2ccccc2)Nc2ccc(Cl)cc21 [Compound 65e, 7-Chloro-3-((4-phenylbutyl)amino)-4H-benzo[e][1,2,4]thiadiazine 1,1-dioxide]",suppressed HUVEC proliferation; also recorded: enhanced activity,,23.4,116 ± 16,
"CC(NC1=NS(=O)(=O)c2ccccc2N1)c1ccccc1 (centres unmarked) [Compound 24d, 3-((1-phenylethyl)amino)-4H-benzo[e][1,2,4]thiadiazine 1,1-dioxide]",,,,,attenuation of pVEGFR2 expression [2]: outperformed the parent compound; also recorded: most potent; cytotoxicity at 100 µM [3]: ~30%
"COc1cccc(CNC2=NS(=O)(=O)c3cc(Cl)ccc3N2)c1 [Compound 62e, 7-Chloro-3-((3-methoxybenzyl)amino)-4H-benzo[e][1,2,4]thiadiazine 1,1-dioxide]",suppressed HUVEC proliferation; also recorded: enhanced activity,,,,"attenuation of pVEGFR2 expression [2]: outperformed the parent compound; also recorded: most potent; inhibition at 20 µM ([4]; HUVEC, 48 h): 96 ± 16%"
O=C(CC(=O)C(F)(F)F)c1cccs1 [Thenoyltrifluoroacetone],,,,,IC50 [7]: 30 µM
"CNC(=O)c1cc(Oc2ccc(NC(=O)Nc3ccc(Cl)c(C(F)(F)F)c3)cc2)ccn1 [Sorafenib, reference compound]",,7.31 ± 1.9,2.95 ± 0.1,,
"O=S1(=O)N=C(NCCCc2ccccc2)Nc2cc(Cl)ccc21 [Compound 23b, 6-chloro-3-((3-phenylpropyl)amino)-4H-benzo[e][1,2,4]thiadiazine 1,1-dioxide]",suppressed HUVEC proliferation; also recorded: enhanced activity,91.9 ± 16.8,111 ± 7.4,178 ± 8,"inhibition at 100 µM [1, 8]: 30%; cytotoxicity at 100 µM [3]: ~35%"
"O=S1(=O)N=C(NCc2ccc(F)cc2F)Nc2ccc(Cl)cc21 [Compound 63e, 7-Chloro-3-((2,4-difluorobenzyl)amino)-4H-benzo[e][1,2,4]thiadiazine 1,1-dioxide]",suppressed HUVEC proliferation; also recorded: enhanced activity,45.5,58.9 ± 13.7,133 ± 12,
"O=S1(=O)N=C(NCc2ccccc2OC(F)(F)F)Nc2cc(Cl)ccc21 [Compound 43b, 6-Chloro-3-((2-(trifluoromethoxy)benzyl)amino)-4H-benzo[e][1,2,4]thiadiazine 1,1-dioxide]",suppressed HUVEC proliferation; also recorded: enhanced activity,14.9,30.5,124 ± 4,
"O=S1(=O)N=C(NCc2ccc(F)cc2F)Nc2cc(Cl)ccc21 [Compound 29b, 6-chloro-3-((2,4-difluorobenzyl)amino)-4H-benzo[e][1,2,4]thiadiazine 1,1-dioxide]",suppressed HUVEC proliferation; also recorded: enhanced activity,84.6,129 ± 12.2,167 ± 14,
"O=S1(=O)N=C(NC2CCCC2)Nc2ccc(Cl)cc21 [Compound 59e, 7-Chloro-3-(cyclopentylamino)-4H-benzo[e][1,2,4]thiadiazine 1,1-dioxide]",suppressed HUVEC proliferation; also recorded: enhanced activity,,,133 ± 6,attenuation of pVEGFR2 expression [2]: outperformed the parent compound; also recorded: most potent
"COc1[nH]c(=O)c(C(=O)[C@@H](C)C[C@H](C)[C@@H](Cl)CCl)c(O)c1OC [Atpenin A5, reference compound]",,,,,"inhibition of CII ([1]; 0.1 μM): 93%; IC50 ([1]; positive control, read-out: CII IC50): 0.0033 µM; IC50 [7]: 0.0033 µM; IC50 ([7]; listed as atpenin A5): 0.0036 to 0.01 µM"
"CCCCCC(=O)c1c(O)nc(OC)c(OC)c1O [AA5-16c, reference compound]",,6.71 ± 0.8,25.9 ± 2.4,,"IC50 [7]: 0.064 µM; ligand-lipophilicity efficiency [7]: 5.62; cytotoxicity at 20 µM ([3]; 22Rv1, read-out: reduction of 22Rv1 cell viability): 60%"
Cc1c(C)c2c(c(C)c1OC(=O)CCC(=O)O)CC[C@@](C)(CCC[C@H](C)CCC[C@H](C)CCCC(C)C)O2 [α-Tocopheryl succinate],,,,,IC50 [7]: 42 µM
"O=S1(=O)N=C(NCCCc2ccccc2)Nc2ccc(Cl)cc21 [Compound 60e, 7-Chloro-3-((3-phenylpropyl)amino)-4H-benzo[e][1,2,4]thiadiazine 1,1-dioxide]",suppressed HUVEC proliferation; also recorded: enhanced activity,,30.9,92 ± 15,
